Literature values, collected in article PMC10140125 (Investigational New Drugs, 2023).

Tested on: recurrent malignant gliomas
Set-up: method as in PMID 20458050, PMID 20200024
Settings: phase II studies, recurrent malignant gliomas ref 4, 22

Row | SMILES | ORR [%]
1 | COc1cc2c(Oc3ccc4[nH]c(C)cc4c3F)ncnc2cc1OCCCN1CCCC1 [cediranib] | 56.7
2 | Cc1ccc(Nc2nccc(N(C)c3ccc4c(C)n(C)nc4c3)n2)cc1S(N)(=O)=O [pazopanib] | 5.9
